Measurements reported in patent US20160192643A1, “NEW ANTIFUNGAL COMPOSITION FOR TREATMENT OF SOIL” (CERADIS B.V., priority 2013, published 2016).

Experiments:
Agaricus bisporus = experiment: Polyelectrolyte formulation applied on mushroom growth substrate: total yield of mushrooms; assay type: in vivo; details: natamycin 500 ppm where present
Method: Naturally contaminated Phase III compost inoculated with mushroom spawn of the edible mushroom species Agaricus bisporus prepared using well known methods was obtained from a local Dutch grower
Formulations described in Table 3 were generated as described in Example 1 for CitoCal.
Boxes with a size of 30 (1)×25 (b)×10 (h) cm were filled with the Phase III compost and incubated for 4 days at a temperature of 21° C. in the dark. After this incubation period, the white mushroom mycelium was visible on the surface of the compost. The compost was covered with 3 cm of casing prepared using well known methods after which 30 ml of the different formulations was sprayed onto the casing. Each formulation was examined in duplicate. The next day, 200 ml of water was added to each box after which the boxes were incubated for 7 days at 21° C. in the dark allowing the mycelium to grow to the surface of the casing. After this period the white mushroom mycelium was visible at the surface of the casing. The boxes were further incubated in the dark at a temperature of 18° C.
Dehydration of the casing surface was prevented by spraying sufficient and equal amounts of water (circa 10 ml) onto the casing in each box every few days using well known methods. […] During a period of 46 days mushrooms were harvested every day; the total yield was determined by measuring the weight of the mushrooms.

[1] = neutral aqueous systems; cited from earlier work
most fungi = details: cited from earlier work
Pythium aphanidermatum = experiment: Polyelectrolyte formulation against Pythium aphanidermatum in Chrysanthemum soil
Method: Soil was artificially infected with Pythium aphanidermatum spores using well known methods. Crates of 40×60 cm each were filled with infected soil. Transplants of Chrysanthemum were planted after the artificial infection. Each plot consisted of 2 crates with each 15 plants (30 plants per plot). The trial was conducted in four replicates. A single application was done just after transplant by spraying the AllyloCal polyelectrolyte complex over the crop at 1000 l/ha. Immediately after the treatment, the products were rinsed in the soil with 3 liter of water per m^2. The applied concentration in the spray suspension was 1000 ppm of natamycin. After 10 days the numbers of healthy, diseased and dead plants were counted.
At the end of the trial, after 44 days, the average plant height, the average plant weight and the rooting (in percentage of the bottom of the crates covered with roots) were measured.

[2] = 10 days after infection, n = 120, single spray at 1000 l/ha, 1000 ppm natamycin
[3] = compared with the untreated plants (n = 120), after 44 days
[4] = end of the trial, after 44 days

For C[C@@H]1C/C=C/C=C/C=C/C=C/[C@H](O[C@@H]2O[C@H](C)[C@@H](O)[C@H](N)[C@@H]2O)C[C@@H]2O[C@](O)(C[C@@H](O)C[C@H]3O[C@@H]3/C=C/C(=O)O1)C[C@H](O)[C@H]2C(=O)O [Natamycin, natamycin], which “Total yield (gram/2 boxes)” value (Agaricus bisporus; total mushroom weight after 46 days of incubation, 30 ml formulation sprayed onto casing, naturally contaminated Phase III compost) is on record?
Its value is 359 gram/2 boxes.

And the “Yield increase (%)” value (Agaricus bisporus; versus Control, 46 days of incubation)?
Its value is −1.4%.

And the solubility [1]?
Its solubility is 30-40 ppm.

What about the “Minimal Inhibitory Concentration (MIC)” value (most fungi) of the same compound?
Its value is “less than 10 ppm”.

What about the “Dead plants (%)” value (Pythium aphanidermatum; [2]) of the same compound?
The value was 6%.

And the “Diseased plants (%)” value (Pythium aphanidermatum; [2])?
The value was 34%.

What about the “Healthy plants (%)” value (Pythium aphanidermatum; [2]) of the same compound?
The value was 60%.

And the “Percentage improvement of plant height (%)” value (Pythium aphanidermatum; [3])?
The value was 5.5%.

What about the “Percentage improvement of plant rooting (%)” value (Pythium aphanidermatum; [3]) of the same compound?
The value was 2.3%.

What about the “Percentage improvement of plant weight (%)” value (Pythium aphanidermatum; [3]) of the same compound?
The value was 3.9%.

And the average plant height (Pythium aphanidermatum; [4])?
The average plant height was 59.9 cm.

What about the average plant weight (Pythium aphanidermatum; [4]) of the same compound?
Its average plant weight is 43.1 grams.
